Earlier results in patent US11369597B2, “Methods for treating pancreatic cancer using combination therapies” (Ipsen Biopharm Ltd., priority 2012, dated 2022).
Read-outs that look alike come from different tables or passages of the source.

What was measured:
[1] = metabolite formed by carboxylesterases
[2] = tested on: advanced pancreatic cancer; settings: first-line
[3] = tested on: advanced and metastatic pancreatic adenocarcinoma
[4] = for incidence of grade 4 neutropenia: 350 mg/m^2 once every-3-weeks

CCc1c2c(nc3ccc(O)cc13)-c1cc3c(c(=O)n1C2)COC(=O)[C@]3(O)CC [SN-38]
SN-38 more active than irinotecan [1]: 100-1000 fold

Nc1ccn([C@@H]2O[C@H](CO)[C@@H](O)C2(F)F)c(=O)n1 [gemcitabine]
1-year survival rate [2]: 17% | median survival [2]: 5.9 months | median overall prolongation of survival ([3]; second line after 5-fluorouracil): 3.9 months | 1-year survival rate ([3]; single-agent, first-line): about 20%

CCc1c2c(nc3ccc(OC(=O)N4CCC(N5CCCCC5)CC4)cc13)-c1cc3c(c(=O)n1C2)COC(=O)[C@]3(O)CC [irinotecan, 7-ethyl-10-[4-(1-piperidino)-1-piperidino] carbonyloxycampothecin]
incidence of grade 4 neutropenia ([4]; patients heterozygous (UGT1A1 6/7 genotype)): 12.5% | incidence of grade 4 neutropenia ([4]; patients homozygous for the UGT1A1*28 allele): 50% | grade 4 neutropenia ([4]; patients homozygous for the wild-type allele (UGT1A1 6/6 genotype)): no grade 4 neutropenia was observed
